In brackets after ≈: the same amount, converted by molar mass.
Legend:
[1] = Solubility of SOL at different pH; assay type: physicochemical
Description: It has been discovered herein that the solubility of the compounds described herein generally decreases with increasing pH. […] It has also been discovered herein that at certain pH levels, a stable aqueous suspension of the compounds may be prepared. That suspension may also be prepared from a reconstitutable powder for oral suspension (POS). However, it has also been discovered that at certain limiting pH levels, a threshold amount of the compounds described herein are in solution and therefore such an oral suspension may have a bitter taste that compromises the efficacy thereof, such as due to poor patient compliance.

[2] = Stability of SOL in the presence of excipients; assay type: physicochemical
Description: It has unexpectedly been discovered that compounds described herein, such as SOL, are unstable in the presence of high relative amounts of sucralose. In another embodiment, the weight/weight ratio of API, such as SOL to sucralose is greater than about 3, greater than about 4, greater than about 5, greater than about 6, greater than about 7, greater than about 8, greater than about 9, or greater than about 10. Illustratively, the POS and suspension formulations described herein include one of more souring agents. It has unexpectedly been discovered that compounds described herein, such as SOL, are unstable in the presence of high relative amounts of citric acid. In another embodiment, the weight/weight ratio of API, such as SOL to citric acid is greater than about 50, greater than about 60, greater than about 70, greater than about 80, or greater than about 90. In another embodiment, the POS and suspension formulations described herein are substantially free of, or free of citric acid.

CC[C@H]1OC(=O)[C@@](C)(F)C(=O)[C@H](C)[C@@H](O[C@@H]2O[C@H](C)C[C@H](N(C)C)[C@H]2O)[C@](C)(OC)C[C@@H](C)C(=O)[C@H](C)[C@H]2N(CCCCn3cc(-c4cccc(N)c4)nn3)C(=O)O[C@]12C [SOL, solithromycin]
solubility ([1]; pH 5.7, aqueous buffer): 68000 µg/mL (≈ 80500 µM)
solubility ([1]; pH 6.2, aqueous buffer): 860 µg/mL (≈ 1020 µM)
solubility ([1]; pH 7.5, aqueous buffer): 70 µg/mL (≈ 82.8 µM)
stability in the presence of citric acid ([2]; high relative amounts of citric acid): unstable
stability in the presence of sucralose ([2]; high relative amounts of sucralose): unstable

— patent US20170224664A1, “POWDER ORAL SUSPENSION FORMULATIONS OF ANTIBACTERIAL AGENTS” (Cempra Pharmaceuticals, Inc., priority 2014, published 2017)
